Results reported in US6653300B2, “Pyrazole compounds useful as protein kinase inhibitors” (Vertex Pharmaceuticals Incorporated, priority 2000, dated 2003).
Where two headings read alike, the source gives them in different places.

Key:
CDK-2/Cyclin A = CDK-2/Cyclin A (Homo sapiens, UniProt P24941); test: CDK-2 inhibition assay (coupled enzyme assay); type: biochemical; conditions: 25 nM CDK-2/Cyclin A, 30° C.
Method: Compounds were screened in the following manner for their ability to inhibit CDK-2 using a standard coupled enzyme assay (Fox et al (1998) Protein Sci 7, 2249).
To an assay stock buffer solution containing 0.1M HEPES 7.5, 10 mM MgCl2, 1 mM DTT, 25 mM NaCl, 2.5 mM phosphoenolpyruvate, […], 30 mg/ml pyruvate kinase, 10 mg/ml lactate dehydrogenase, 100 mM ATP, and 100 μM peptide ([…], American Peptide, Sunnyvale, Calif.) was added a DMSO solution of a compound of the present invention to a final concentration of 30 μM. The resulting mixture was incubated at 30° C. for 10 min.
The reaction was initiated by the addition of 10 μL of CDK-2/Cyclin A stock solution to give a final concentration of 25 nM in the assay. The rates of reaction were obtained by monitoring absorbance at 340 nm over a 5-minute read time at 30° C. using a BioRad Ultramark plate reader (Hercules, Calif.). The Ki values were determined from the rate data as a function of inhibitor concentration.

activated ERK2 = activated ERK2 (Homo sapiens, UniProt P28482); test: ERK inhibition assay (spectrophotometric coupled-enzyme assay); type: biochemical; conditions: 10 nM activated ERK2, 65 μM ATP, 30° C.; read-out: Ki values for ERK-2
Chain of activated ERK2 (P28482 whole entry): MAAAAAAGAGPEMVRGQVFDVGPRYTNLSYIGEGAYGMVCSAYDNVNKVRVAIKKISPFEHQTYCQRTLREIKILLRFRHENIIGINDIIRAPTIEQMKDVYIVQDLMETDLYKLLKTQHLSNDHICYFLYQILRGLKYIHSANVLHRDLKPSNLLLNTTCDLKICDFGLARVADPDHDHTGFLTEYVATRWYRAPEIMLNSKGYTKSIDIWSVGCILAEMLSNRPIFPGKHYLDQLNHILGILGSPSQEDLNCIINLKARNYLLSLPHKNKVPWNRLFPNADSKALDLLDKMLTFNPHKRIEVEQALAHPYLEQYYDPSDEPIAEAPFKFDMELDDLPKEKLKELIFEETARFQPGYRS
Method: Compounds were assayed for the inhibition of ERK2 by a spectrophotometric coupled-enzyme assay (Fox et al (1998) Protein Sci 7, 2249).

Aurora-2 = target: T1, Aurora-2 (Homo sapiens, UniProt O14965); test: Ki determination for the inhibition of Aurora-2 (coupled enzyme assay); type: biochemical; conditions: 70 nM Aurora-2, 30° C.
T1 sequence (O14965 1-403): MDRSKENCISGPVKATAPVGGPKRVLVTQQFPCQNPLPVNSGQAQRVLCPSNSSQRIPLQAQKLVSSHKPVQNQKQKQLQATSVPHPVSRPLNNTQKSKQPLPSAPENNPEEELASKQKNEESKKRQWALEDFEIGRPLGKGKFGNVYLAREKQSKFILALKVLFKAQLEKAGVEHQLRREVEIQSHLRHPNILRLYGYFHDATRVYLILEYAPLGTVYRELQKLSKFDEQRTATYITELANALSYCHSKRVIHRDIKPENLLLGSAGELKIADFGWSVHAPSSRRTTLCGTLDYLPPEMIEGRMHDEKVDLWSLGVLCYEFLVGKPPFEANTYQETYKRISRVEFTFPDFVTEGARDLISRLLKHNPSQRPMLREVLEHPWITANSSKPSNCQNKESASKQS
Procedure, shortened: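 Ki came from reaction rates plotted against inhibitor concentration, with rates taken as A340 decrease over 5 min at 30° C. Enzyme (70 nM final) was added after 10 min compound preincubation; stock buffer held […], 800 μM LRRASLG, PK/LDH coupling, pH 7.5.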

GSK-3β (AA 1-420) = target: T2, GSK-3β (AA 1-420) (Homo sapiens, UniProt P49841); test: Ki determination for the inhibition of GSK-3 (coupled enzyme system); type: biochemical; conditions: 20 μM ATP, 20 nM GSK-3β, 30° C.
T2 construct: GSK-3β (AA 1-420)
T2 sequence (P49841 whole entry, the tested form may be a part): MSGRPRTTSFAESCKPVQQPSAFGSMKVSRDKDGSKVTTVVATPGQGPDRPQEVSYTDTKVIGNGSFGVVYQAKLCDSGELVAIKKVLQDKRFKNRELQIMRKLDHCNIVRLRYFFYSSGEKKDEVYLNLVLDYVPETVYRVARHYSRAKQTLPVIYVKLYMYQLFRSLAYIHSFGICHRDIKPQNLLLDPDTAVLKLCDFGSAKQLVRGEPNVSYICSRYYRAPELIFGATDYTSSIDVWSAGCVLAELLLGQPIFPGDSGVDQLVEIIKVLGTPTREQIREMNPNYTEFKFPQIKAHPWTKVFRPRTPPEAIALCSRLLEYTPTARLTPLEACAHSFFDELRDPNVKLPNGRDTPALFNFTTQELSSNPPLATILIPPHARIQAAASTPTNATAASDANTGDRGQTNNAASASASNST
Procedure, shortened: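 GSK-3β (AA 1-420, 20 nM) was run in a pyruvate kinase/LDH-coupled NADH assay in 100 mM HEPES pH 7.5, 10 mM MgCl2, 25 mM NaCl, 1 mM DTT, 1.5% DMSO, with 300 μM phosphopeptide substrate. Compound (0.002–30 μM) was preincubated 10 min at 30° C, then 20 μM ATP was added.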

human Src kinase = target: T3, human Src kinase (Homo sapiens, UniProt P12931); test: SRC inhibition assay (radioactivity-based or spectrophotometric assay); type: biochemical; conditions: recombinant human Src kinase, assay A or B
T3 construct: full length recombinant human Src kinase (from Upstate Biotechnology, cat. no. 14-117); purchased Upstate Biotechnology 14-117; host or cells: baculo viral cells
T3 sequence (P12931 whole entry): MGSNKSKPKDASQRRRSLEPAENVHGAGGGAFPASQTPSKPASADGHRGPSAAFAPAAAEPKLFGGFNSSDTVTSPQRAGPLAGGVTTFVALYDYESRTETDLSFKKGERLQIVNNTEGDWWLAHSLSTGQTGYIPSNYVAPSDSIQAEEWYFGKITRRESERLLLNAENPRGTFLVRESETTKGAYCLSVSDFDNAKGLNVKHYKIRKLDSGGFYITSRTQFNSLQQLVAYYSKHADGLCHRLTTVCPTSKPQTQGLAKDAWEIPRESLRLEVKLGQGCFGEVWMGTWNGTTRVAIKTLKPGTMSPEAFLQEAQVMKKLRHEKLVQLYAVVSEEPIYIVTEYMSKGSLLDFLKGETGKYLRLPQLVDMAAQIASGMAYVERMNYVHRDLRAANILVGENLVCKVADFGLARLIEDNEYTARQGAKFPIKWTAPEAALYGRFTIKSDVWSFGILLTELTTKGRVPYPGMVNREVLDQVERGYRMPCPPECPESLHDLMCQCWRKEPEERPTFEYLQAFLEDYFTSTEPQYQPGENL
Procedure, shortened: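 Full-length recombinant human Src from baculovirus was used. In the radiometric format, enzyme was preincubated 10 min at 30 °C, the reaction was started with ^33P-ATP and run 20 min, then TCA-quenched and filter-counted. The alternative format monitored poly Glu-Tyr phosphorylation by NADH-coupled A340 rate. Ki came from competitive-inhibition fits.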

AKT-3 = AKT-3 (Homo sapiens, UniProt Q9Y243); test: AKT inhibition assay (coupled enzyme assay); type: biochemical; conditions: 45 nM AKT, 170 μM ATP, 30° C.
Chain of AKT-3 (Q9Y243 whole entry, species assumed): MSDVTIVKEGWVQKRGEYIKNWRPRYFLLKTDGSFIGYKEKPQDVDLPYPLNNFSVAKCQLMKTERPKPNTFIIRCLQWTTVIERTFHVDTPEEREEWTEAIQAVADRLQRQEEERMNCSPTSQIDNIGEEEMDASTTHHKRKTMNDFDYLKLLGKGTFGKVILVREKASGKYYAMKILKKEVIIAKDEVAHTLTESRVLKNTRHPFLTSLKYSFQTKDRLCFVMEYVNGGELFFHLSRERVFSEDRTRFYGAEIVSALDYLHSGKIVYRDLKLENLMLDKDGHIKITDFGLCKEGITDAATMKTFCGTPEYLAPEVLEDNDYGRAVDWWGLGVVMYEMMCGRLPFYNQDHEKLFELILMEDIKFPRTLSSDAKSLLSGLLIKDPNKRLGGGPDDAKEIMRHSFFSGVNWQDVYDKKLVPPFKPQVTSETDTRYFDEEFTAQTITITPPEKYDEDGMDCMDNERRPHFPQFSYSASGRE
Method: Compounds were screened for their ability to inhibit AKT using a standard coupled enzyme assay (Fox et al., Protein Sci., (1998) 7, 2249). Assays were carried out in a mixture of 100 mM HEPES 7.5, 10 mM MgCl2, 25 mM NaCl, 1 mM DTT and 1.5% DMSO. Final substrate concentrations in the assay were 170 μM ATP (Sigma Chemicals) and 200 μM peptide (RPRAATF, American Peptide, Sunnyvale, Calif.). Assays were carried out at 30° C. and 45 nM AKT. Final concentrations of the components of the coupled enzyme system were 2.5 mM phosphoenolpyruvate, 300 μM NADH, 30 μg/ML pyruvate kinase and 10 μg/ml lactate dehydrogenase.
An assay stock buffer solution was prepared containing all of the reagents listed above, with the exception of AKT, DTT, and the test compound of interest. 56 μl of the stock solution was placed in a 384 well plate followed by addition of 1 μl of 2 mM DMSO stock containing the test compound (final compound concentration 30 μM). The plate was preincubated for about 10 minutes at 30° C. and the reaction initiated by addition of 10 μl of enzyme (final concentration 45 nM) and 1 mM DTT. Rates of reaction were obtained using a BioRad Ultramark plate reader (Hercules, Calif.) over a 5 minute read time at 30° C.

SMILES	Ki (CDK-2/Cyclin A) [µM]	Ki (activated ERK2) [µM]	melting point [°C]	Ki (Aurora-2) [µM]	Ki (GSK-3β (AA 1-420)) [µM]	Ki (human Src kinase; read-out: Ki value on SRC) [µM]	Ki (AKT-3) [µM]	Ki (human Src kinase; read-out: Ki value for SRC) [µM]
Cc1cccc(Sc2nc(Nc3cc(C)[nH]n3)c3ccccc3n2)c1 [IIa-14, [2-(3-Methylphenylsulfanyl)-quinazolin-4-yl]-(5-methyl-2H-pyrazol-3-yl)-amine]	< 1	–	249 to 250	< 0.1	0.1 to 1	–	–	–
CC(=O)Nc1ccc(Sc2nc(Nc3cc(C4CC4)[nH]n3)c3ccccc3n2)cc1 [IIa-36, [2-(4-Acetamido-phenylsulfanyl)-quinazolin-4-yl]-(5-cyclopropyl-2H-pyrazol-3-yl)-amine]	< 1	1 to 20	–	–	–	–	–	–
COc1cccc2c(Nc3cc(C)n[nH]3)nc(Sc3ccc(NC(C)=O)cc3)nc12 [IIa-44, [2-(4-Acetamidophenylsulfanyl)-8-methoxy-quinazolin-4-yl]-(5-methyl-2H-pyrazol-3-yl)-amine]	1 to 20	–	247 to 249	< 0.1	–	–	–	1 to 6
CC(=O)Nc1ccc(Sc2nc(Nc3cc(C)[nH]n3)c3cccc(O)c3n2)cc1 [IIa-52, [2-(4-Acetamido-phenylsulfanyl)-8-hydroxyquinazolin-4-yl]-(5-methyl-2H-pyrazol-3-yl)-amine]	1 to 20	–	258 to 259	< 0.1	1 to 7	–	–	–
CCCS(=O)(=O)Nc1ccc(Sc2nc(Nc3cc(C)n[nH]3)c3ccccc3n2)cc1 [IIa-54, (5-Methyl-2H-pyrazol-3-yl)-{2-[4-(propane-1-sulfonylamino)-phenylsulfanyl]-quinazolin-4-yl}-amine]	1 to 20	–	272 to 273	< 0.1	0.1 to 1	–	–	1 to 6
c1ccc(Nc2nc(Nc3cc(C4CC4)[nH]n3)c3ccccc3n2)cc1 [IIc-18, (5-Cyclopropyl-2H-pyrazol-3-yl)-(2-phenylamino-quinazolin-4-yl)-amine]	–	1 to 20	234	< 0.1	< 0.1	< 0.1	1 to 20	–
Cc1cccc(Nc2nc(Nc3cc(C4CC4)[nH]n3)c3ccccc3n2)c1C [IIc-42, (5-Cyclopropyl-2H-pyrazol-3-yl)-[2-(2,3-dimethylphenylamino)-quinazolin-4-yl]-amine]	–	–	241 to 242	< 0.1	< 0.1	< 0.1	1 to 20	–
Cc1cc(Nc2nc(Nc3ccc4ncsc4c3)nc3ccccc23)n[nH]1 [IIc-53, [2-(Benzothiazol-6-ylamino)-quinazolin-4-yl]-(5-methyl-2H-pyrazol-3-yl)-amine]	< 1	< 1	236 to 239	< 0.1	< 0.1	–	1 to 20	–

Further lines, with some results ahead:

Ki (CDK-2/Cyclin A) [µM]	Ki (activated ERK2) [µM]	melting point [°C]	Ki (Aurora-2) [µM]	Ki (GSK-3β (AA 1-420)) [µM]	Ki (human Src kinase; read-out: Ki value on SRC) [µM]	Ki (AKT-3) [µM]	SMILES	Ki (human Src kinase; read-out: Ki value for SRC) [µM]
< 1	< 1	294 to 297	–	–	–	–	N#CCc1ccc(Nc2nc(Nc3cc(C4CC4)[nH]n3)cc(-c3ccccc3)n2)cc1 [IIIc-4, [2-(4-cyanomethylphenylamino)-6-phenyl-pyrimidin-4-yl]-(5-cyclopropyl-2H-pyrazol-3-yl)-amine]	–
< 1	< 1	> 250	< 0.1	< 0.1	< 0.1	–	Cc1cc(Nc2nc(Nc3ccc(CC#N)cc3)nc3ccccc23)n[nH]1 [IIc-15, [2-(4-Cyanomethylphenylamino)-quinazolin-4-yl]-(5-methyl-2H-pyrazol-3-yl)-amine]	–
–	–	–	< 0.1	< 0.1	< 0.1	1 to 20	c1ccc2c(Nc3cc(C4CC4)[nH]n3)nc(Nc3ccc4cc[nH]c4c3)nc2c1 [IIc-22, (5-Cyclopropyl-2H-pyrazol-3-yl)-[2-(1H-indol-6-ylamino)-quinazolin-4-yl]-amine]	–
< 1	1 to 20	250 to 251	< 0.1	< 0.1	–	1 to 20	CCc1ccc(Nc2nc(Nc3cc(C4CC4)[nH]n3)c3ccccc3n2)cc1 [IIc-25, (5-Cyclopropyl-2H-pyrazol-3-yl)-[2-(4-ethylphenylamino)-quinazolin-4-yl]-amine]	–
< 1	< 1	255 to 256	< 0.1	< 0.1	–	1 to 20	OCCc1ccc(Nc2nc(Nc3cc(C4CC4)[nH]n3)c3ccccc3n2)cc1 [IIc-27, (5-Cyclopropyl-2H-pyrazol-3-yl)-{2-[4-(2-hydroxyethyl)phenylamino]-quinazolin-4-yl}-amine]	–
–	–	–	< 0.1	< 0.1	< 0.1	1 to 20	N#CCc1ccc(Nc2nc(Nc3cc(C4CC4)[nH]n3)c3ccccc3n2)cc1 [IIc-31, [2-(4-Cyanomethylphenylamino)-quinazolin-4-yl]-(5-cyclopropyl-2H-pyrazol-3-yl)-amine]	–
–	–	–	< 0.1	< 0.1	< 0.1	1 to 20	c1ccc2c(Nc3cc(C4CC4)[nH]n3)nc(Nc3ccc4[nH]ncc4c3)nc2c1 [IIc-37, (5-Cyclopropyl-2H-pyrazol-3-yl)-[2-(1H-indazol-5-ylamino)-quinazolin-4-yl]-amine]	–
–	–	228 to 231	< 0.1	< 0.1	< 0.1	1 to 20	COC(=O)c1cccc(Nc2nc(Nc3cc(C4CC4)[nH]n3)c3ccccc3n2)c1 [IIc-39, (5-Cyclopropyl-2H-pyrazol-3-yl)-[2-(3-methoxycarbonylphenylamino)-quinazolin-4-yl]-amine]	–
